In brackets after ≈: the same amount, converted by molar mass. Several values for one entry are separate records, joined by “and”; a condition that tells them apart may be missing. Identical values can stand only once.
Experiments:
[1] = Specific surface area, BET method with nitrogen (NOVA 2000); type: physicochemical; conditions: for Specific Surface Area: BET, nitrogen, 77° K
Source text: The specific surface area of crystalline form IV of posaconazole as such, i.e. as obtained according to the herein described methods, is typically about 10-25 m^2/g±0.5 m^2/g, e.g. about 13-20 m^2/g±0.5 m^2/g, such as about 15-17 m^2/g±0.5 m^2/g, as measured according to the known Multi-Point-BET-method as herein described and as shown in Example 7. This specific surface area of crystalline form IV of posaconazole is about 10-fold larger when compared to that of known crystalline form I. It is known that the specific surface area between a solid and a liquid phase has a direct impact on the dissolution rate and thus on the bioavailability of the pharmaceutical ingredient as described e.g. by the equation by Nernst and Brunner as found in W. Nernst, Z. Phys. Chem. 47 (1904), pp. 52-55. […] Thus, crystalline form IV of posaconazole may advantageously be used as such, i.e. without being micronized, for preparing a pharmaceutical composition, e.g. a liquid suspension or dispersion as herein described—in contrast to known posaconazole forms which are micronized for use in such suspensions as e.g. described in WO 02/80678.
Specific surface area measurement was performed with the equipment NOVA 2000 as commercially available from Quantachrome Instruments using the BET method and Nitrogen as the absorbed gas at 77° K (i.e. −196.15° C.) as described e.g. by Medema J, Campagne A.: A Simple Method to Determine Cumulative Surface-Area Distributions of Porous Solids; Journal of Catalysis, Volume 8, Issue 2, pp. 120, 1967. Crystalline form IV of posaconazole was prepared according to Example 4. Crystalline form I was prepared by the method of example 3 described in U.S. Pat. No. 6,958,337.

[2] = Median particle size by laser diffraction (Malvern Mastersizer 2000S) in oral suspension; type: physicochemical; conditions: for Median particle size (d (0.5)-value): in suspension, laser diffraction after 5 min ultrasonic treatment
Source text: The median particle size of crystalline form IV of posaconazole when used as such, i.e. in a non-micronized form for preparing a pharmaceutical composition in the form of a liquid suspension or dispersion as herein described, has been determined in samples taken from such suspension. Said median particle size is typically about 0.1-0.2 μm±0.05 μm, e.g. 0.14-0.17 μm, such as 0.15 μm, when measured with known laser diffraction methods, e.g. determination of the particle size distribution (Malvern) according to the US-Pharmacopeia (USP) 32 (2009) method <429> and to the European Pharmacopeia (EP) 6 (2008) method 2.9.31. based on the diffraction of laser by particles within the measurement volume (for details see Example 8). In the present invention, the term median particle size is understood to mean the d(0.5) value as determined according to the herein described laser diffraction methods.
Crystalline form IV as obtained by Example 4 was used to prepare 25 ml of a suspension as follows:
The suspension was prepared as follows: 40% of the final amount of Polysorbat 80 and 40% of the final amount of simethicone were mixed and dissolved and/or dispersed in about 12% of the final amount of purified water and homogenized with Ultra Turrax (30 seconds; 27,000 rpm). Subsequently, 1 g of the form IV of posaconazole, i.e. in its non-micronized form, were suspended or dispersed in this mixture under homogenization by Ultra Turrax (27,000 rpm, 2 minutes). The remaining 60% of Polysorbat 80 and of simethicone and 32% of the final amount of the purified water were added and mixed followed by the addition of sodium benzoate, sodium citrate dihydrate and citric acid monohydrate. After further mixing, xanthan gum was added to the mixture under stirring, followed by a 30 minutes phase of hydratization without mixing. Subsequently, glycerol and liquid glucose as well as titanium dioxide and the remaining portion of 56% of the final amount of purified water were added under mixing with a suitable homogenizer until a uniform suspension was obtained.
25 ml of a similar suspension were prepared analogously using non-micronized crystalline form I of posaconazole which was prepared by the method of example 3 described in U.S. Pat. No. 6,958,337.
Additionally, NOXAFIL® oral suspension (40 mg/ml) as commercially available from Medizone Germany GMBH (US product) was used to determine the particle size distribution of micronized form I of posaconazole which was contained in this known suspension.
The particle size distribution (Malvern) was measured according to the USP 32 (2009) method <429> and EP 6 (2008) method 2.9.31. based on the diffraction of laser by particles using a Mastersizer 2000S liquid dispersion system. The particle size measurement was started after ultrasonic treatment of the sample for 5 min.

[3] = Dissolution of suspensions, USP 32 method <711>, apparatus II (Paddle); type: physicochemical; conditions: 25 rpm, 0.3% SLS aqueous solution
Method: The liquid suspensions containing non-micronized crystalline form IV or non-micronized crystalline form I as well as the NOXAFIL® oral suspension containing micronized crystalline form I described in Example 8 were tested for their dissolution behaviour.
Dissolution was tested according to USP 32 (2009) method <711> (USP apparatus II (Paddle); 25 rpm; dissolution medium: 0.3% SLS aqueous solution). Posaconazole concentrations were determined with an online photometer (UV absorption at 260 nm).
The results are shown in Table 4 below wherein values are the amount of posaconazole dissolved in %, and in more detail in FIG. 6 wherein the amount of posaconazole dissolved in % is plotted versus time in minutes.

[4] = on storage as micronised powder, during manufacture or as formulated in the finished product; cited from earlier work
[5] = Equilibrium solubility method in water; type: physicochemical
Method: The solubility of crystalline form IV was determined by the equilibrium solubility method. A saturated solution of form IV, obtained by stirring 250 mg form IV in 6 ml water overnight, was prepared. The sample was filtered through a 0.45 μm membrane filter and the concentration of form IV in the filtrate was measured using a Perkin Elmer Lambda 35 UV/VIS spectrophotometer (λ=260 nm).

[6] = Storage stability of the solid form (degradation or polymorphic conversion by HPLC, IR or XRPD); type: physicochemical
Method: Crystalline form IV is stable under storage conditions which are typical for pharmaceutical compositions and is thus suitable for the preparation of medicaments. Typical storage conditions are, for example, storage at ambient temperature, such as about 20° C. to about 30° C., for several months (e.g., for at least 5 months, preferably at least 12 months, more preferably at least 24 months) in a closed vial.
In experiments crystalline form IV was stable during storage for 63 days at ambient temperature. Even when stored for 4 weeks at 40° C., crystalline form IV was stable.
In this context, “stable” means that neither degradation nor polymorphic conversion to another polymorphic form of crystalline form IV can be detected, for example by HPLC, IR or XRPD analysis as defined herein.

[7] = Polymorphic stability suspended in water and stirred; type: physicochemical; conditions: suspended in water and stirred for 1 week at ambient temperature
[8] = Stability of form IV in an aqueous pharmaceutical composition (XRPD); type: physicochemical; conditions: aqueous pharmaceutical suspension stirred at ambient temperature for 1 week
Method: The stability of form IV in an aqueous pharmaceutical composition was investigated. 240 mg form IV were suspended in a 4 ml aqueous suspension consisting of a mixture of 19 mg sodium benzoate, 3 mg citric acid, 19 mg xanthan gum, 60 mg Polysorbat 80, 600 mg glycerine and 2 g liquid glucose. The suspension was stirred at ambient temperature for 1 week.

[9] = Moisture sorption isotherm (SPS-11); type: physicochemical; conditions: 90% relative humidity, 25° C.
Method: The moisture sorption isotherm was recorded with a SPS-11 moisture sorption analyzer (MD Mess-technik, Ulm, D). The measurement cycle was started at 0% relative humidity (RH), increased in 10% steps up to 90% RH and in a 5% step up to 95% RH. The equilibrium condition for each step was set to a constant mass±0.003% over 49 min. The temperature was 25±0.1° C.
The water content of the obtained crystalline form IV was 2.43%. […] The maximum water content peaks at 3.7% at 90% relative humidity, which corresponds to a water mol ratio of 1.5 (FIG. 4).

[10] = WO 99/18097; cited from earlier work
[11] = cited from earlier work
[12] = listed as crystalline form IV of posaconazole

CC[C@@H]([C@H](C)O)n1ncn(-c2ccc(N3CCN(c4ccc(OC[C@@H]5CO[C@@](Cn6cncn6)(c6ccc(F)cc6F)C5)cc4)CC3)cc2)c1=O [Crystalline Form I, posaconazole]
Specific Surface Area ([1]; listed as Crystalline Form I of posaconazole): 1.5 m^2/g and 1.6 m^2/g
Median particle size (d (0.5)-value) ([2]; listed as Crystalline Form I (non-micronized)): 12.88 μm
amount of posaconazole dissolved ([3]; 3 min, listed as Crystalline Form I non-micronized): 29%
amount of posaconazole dissolved ([3]; 25 min, listed as Crystalline Form I non-micronized): 61%
polymorphic transition [4]: no evidence of polymorphic transition

CC[C@@H]([C@H](C)O)n1ncn(-c2ccc(N3CCN(c4ccc(OC[C@@H]5CO[C@@](Cn6cncn6)(c6ccc(F)cc6F)C5)cc4)CC3)cc2)c1=O [Crystalline Form IV, 2,5-anhydro-1,3,4-trideoxy-2-C-(2,4-difluorophenyl)-4-[[4-[4-[4-[1-[(1S,2S)-1-ethyl-2-hydroxypropyl]-1,5-dihydro-5-oxo-4H-1,2,4-triazol-4-yl]phenyl]-1-piperazinyl]phenoxy]methyl]-1-(1H-1,2,4-triazol-1-yl)-D-threo-pentitol]
solubility ([5]; thermodynamic from solid, saturated solution in water, stirred overnight, 0.45 μm filtered, UV 260 nm): 2.1 µg/mL (≈ 3 µM)
solubility compared with form I ([5]; water, equilibrium solubility): more than two times higher
stability during storage ([6]; 4 weeks at 40° C.): stable
stability during storage ([6]; 63 days at ambient temperature): stable
transformation into another form [7]: not susceptible to transformation into another form
stability in aqueous suspension (XRPD) [8]: remained stable
Specific Surface Area ([1]; listed as Crystalline Form IV of posaconazole): 15.5 m^2/g and 15.7 m^2/g
Specific Surface Area [1, 12]: 10-25 m^2/g
specific surface area relative to crystalline form I ([1]; larger than form I): about 10 fold
Median particle size (d (0.5)-value) ([2]; listed as Crystalline Form IV (non-micronized)): 0.15 μm
Median particle size (d (0.5)-value) [2, 12]: 0.1-0.2 μm
median particle size relative to micronized form I ([2]; smaller than micronized form I): about 10 fold
median particle size relative to non-micronized form I ([2]; smaller than non-micronized form I): about 90 fold
amount of posaconazole dissolved ([3]; 3 min, listed as Crystalline Form IV non-micronized): 82%
amount of posaconazole dissolved ([3]; 25 min, listed as Crystalline Form IV non-micronized): 100%
maximum water content (moisture sorption) [9]: 3.7%
water mol ratio at maximum water content [9]: 1.5

CC[C@@H]([C@H](C)O)n1ncn(-c2ccc(N3CCN(c4ccc(OC[C@@H]5CO[C@@](Cn6cncn6)(c6ccc(F)cc6F)C5)cc4)CC3)cc2)c1=O [Crystalline form II, posaconazole]
stability under the conditions investigated [10]: unstable

CC[C@@H]([C@H](C)O)n1ncn(-c2ccc(N3CCN(c4ccc(OC[C@@H]5CO[C@@](Cn6cncn6)(c6ccc(F)cc6F)C5)cc4)CC3)cc2)c1=O [posaconazole, 2,5-anhydro-1,3,4-trideoxy-2-C-(2,4-difluorophenyl)-4-[[4-[4-[4-[1-[(1S,2S)-1-ethyl-2-hydroxypropyl]-1,5-dihydro-5-oxo-4H-1,2,4-triazol-4-yl]phenyl]-1-piperazinyl]phenoxy]methyl]-1-(1H-1,2,4-triazol-1-yl)-D-threo-pentitol]
log P [11]: > 3
